Measured values from article PMC7725824, “Fused isoselenazolium salts suppress breast cancer cell growth by dramatic increase in pyruvate-dependent mitochondrial ROS production” (Scientific Reports, 2020).
Where two headings read alike, the source gives them in different places.

How the values were obtained:
HEKa = assay: Cytotoxicity assay (MTT), HEKa; assay type: cell-based, human; settings: normal cell line, 48 h, mean ± S.D., 3 experiments
Method: (§1) MCF-7 (human breast adenocarcinoma, estrogen-positive) and 4T1 (mouse carcinoma), as breast cancer cell lines, and H9C2 (rat cardiomyoblasts), NIH 3T3 (mouse fibroblasts), HEKa (primary human epidermal keratinocytes), MDCK (Madin-Darby Canine Kidney) cells, and A7r5 (rat vascular smooth muscle cells), as normal cell lines, were obtained from the American Type Culture Collection [ATCC] collection for use in the current study. All cell lines were cultured in Dulbecco's modified Eagle's medium (DMEM) containing 10% fetal bovine serum (FBS) and 4 mM L-glutamine at 37 °C and 5% CO2.
(§2) Cell viability was assessed by the addition of 3-(4,5-dimethylthiazol-2-yl)-2,5-diphenyltetrazolinium bromide (MTT). Briefly, cells were seeded (2–6 × 10^4 cells/ml) in 96-well plates and allowed to attach for 24 h. Solutions of test compounds were prepared and serially diluted to obtain the appropriate concentrations. The cells were treated with the test compounds at different concentrations (0.032–100 µM) and incubated for 48 h at 37 °C and 5% CO2. Then, the culture medium was removed, and medium containing 0.2 mg/ml MTT was added. After 3 h (37 °C, 5% CO2), the MTT-containing medium was removed, and 200 μl of dimethyl sulfoxide (DMSO) was immediately added to each sample. The absorbance was assessed at 540 nm using a Tecan multiplate reader Infinite 1000 (Austria). The half-maximal inhibitory concentration (IC50) of each compound was calculated using Graph Pad Prism 3.0.

MCF-7 = assay: Cytotoxicity assay (MTT), MCF-7; assay type: cell-based, human; settings: for IC50: read-out: Cytotoxicity, IC50, MCF-7
Method: as §1, §2

H9C2 = assay: Cytotoxicity assay (MTT), H9C2; assay type: cell-based, rat; settings: for IC50: normal cell line, MTT, 48 h, mean ± S.D., 3 experiments
Method: as §1, §2

NIH 3T3 = assay: Cytotoxicity assay (MTT), 3T3; assay type: cell-based, mouse; settings: normal cell line, 48 h, mean ± S.D., 3 experiments
Method: as §1, §2

MDCK = assay: Cytotoxicity assay (MTT), MDCK; assay type: cell-based, Canine; settings: normal cell line, 48 h, mean ± S.D., 3 experiments
Method: as §1, §2

A7r5 = assay: Cytotoxicity assay (MTT), A7r5; assay type: cell-based, rat; settings: normal cell line, 48 h, mean ± S.D., 3 experiments
Method: as §1, §2

4T1 = assay: Cytotoxicity assay (MTT), 4T1; assay type: cell-based, mouse; settings: read-out: Cytotoxicity, IC50, 4T1
Method: as §1, §2

[1] = Cytotoxicity assay (MTT), HEKa; assay type: cell-based, human; settings: human, normal cell line, mean ± S.D., 3 experiments
Method: as §1, §2

[2] = Cytotoxicity assay (MTT), H9C2; assay type: cell-based, rat; settings: rat, normal cell line, MTT, 48 h, mean ± S.D., 3 experiments
Method: as §1, §2

[3] = Cytotoxicity assay (MTT), 3T3; assay type: cell-based, mouse; settings: mouse, normal cell line, mean ± S.D., 3 experiments
Method: as §1, §2

[4] = Cytotoxicity assay (MTT), MDCK; assay type: cell-based, Canine; settings: dog, normal cell line, mean ± S.D., 3 experiments
Method: as §1, §2

[5] = Cytotoxicity assay (MTT), A7r5; assay type: cell-based, rat; settings: rat, normal cell line, mean ± S.D., 3 experiments
Method: as §1, §2

permeabilized 4T1 cells = assay: High-resolution fluorespirometry (respiration and H2O2 flux); assay type: cell-based, mouse; settings: 1 µM, pyruvate-dependent OXPHOS state
Method: High-resolution fluorespirometry was performed using an Oxygraph-2 k system (OROBOROS INSTRUMENTS, Austria). All experiments were performed at 37 °C in MiR05 medium (110 mM sucrose, 60 mM K-lactobionate, 0.5 mM EGTA, 3 mM MgCl2, 20 mM taurine, 10 mM KH2PO4, 20 mM HEPES, pH 7.1 at 30 °C, and 0.1% BSA essentially fatty acid free). The medium was reoxygenated when the oxygen concentration dropped to 80 µM. H2O2 flux was simultaneously measured with respirometry in the O2k-Fluorometer using the H2O2-sensitive probe Ampliflu Red (AmR) as described. The H2O2/O flux ratio [%] was calculated as the H2O2 flux/(0.5 O2 flux).
In permeabilized 4T1 cells, pyruvate + malate (5 and 2 mM) or glutamate + malate (10 and 2 mM) were used to determine complex I (CI)-linked LEAK (L) respiration. ADP was added to a concentration of 5 mM to determine the oxidative phosphorylation-dependent respiration (OXPHOS state). Succinate (10 mM, complex II (CII) substrate) was then added to reconstitute convergent CI&II-linked respiration. Rotenone (0.5 µM, an inhibitor of complex I) and antimycin A (2.5 µM, an inhibitor of complex III) were added to determine the CII-linked OXPHOS capacity and residual oxygen consumption (ROX), respectively. Compound 6 was added to permeabilized cells after the addition of the respective substrates in the OXPHOS state (titration experiment) or in the LEAK state. In addition, compounds 3, 6 and 7 were tested at 1 µM in the OXPHOS coupling protocol in the LEAK state. The OXPHOS coupling efficiency was calculated as: 1-Resp.rateLEAKstate/Resp.rateOXPHOSstate
The substrate-dependent flux control factor was calculated as: 1-Resp.ratebeforeadditionofrespectivesubstrate/Resp.rateafteradditionofrespectivesubstrate

MCF-7 cells [6] = assay: Fluorometric measurement of NMN level; assay type: cell-based, human; settings: 2 μM, 10 min, vs control
Method: For fluorometric measurements of NMN, a previously described method was used, with minor modifications. […] The cells were washed with PBS and then lysed by adding 200 μl of 1 M HClO4 to each well and incubating at 4 °C for 20 min. The cells were harvested by scraping and transferred to a tube. The extracts were neutralized with 100 μl of 2 M KOH for 5 min at room temperature and 50 μl of 0.1 M bicine (pH 7.4) was added. The samples were centrifuged at 14 000 × g for 10 min at 4 °C, and the supernatant was collected for further analysis. The protein concentration in each sample was determined using a Bio-Rad protein assay kit. […] The reaction was incubated for 2 min at 4 °C, after which 45 μl of 88% formic acid was added, and the samples were incubated for another 10 min at 37 °C on a shaker. The fluorescence was measured using a Tecan multiplate reader Infinite 1000 (Austria) with excitation at 382 nm and emission at […].

MCF-7 cells [7] = assay: NAD+/NADH assay kit measurement; assay type: cell-based, human; settings: 2 μM, 10 min
Method: The NAD^+/NADH ratio in the MCF-7 cells exposed to the test compounds (2 μM) for 10 min was measured using an NAD^+/NADH assay kit (Abcam, ab65348) according to the manufacturer's instructions.

[8] = breast cancer cell line, MTT, 48 h, mean ± S.D., 3 experiments
[9] = HEKa cells (primary epidermal keratinocytes)
[10] = Homo sapiens, MCF7, breast cancer cell line, MTT, 48 h, mean ± S.D., 3 experiments
[11] = A7r5 cells (vascular smooth muscle cells)
[12] = Mus musculus, 4T1, breast cancer cell line, MTT, 48 h, mean ± S.D., 3 experiments

3-bromo-2-(2-hydroxy-2-methylethyl)-[1,2]selenazolo[2,3-a]pyridinium chloride [Compound 1]
IC50 (HEKa): 2310 ± 20 nM
IC50 (MCF-7; [8]): 3100 ± 30 nM
IC50 (H9C2): 1800 ± 100 nM
IC50 (NIH 3T3): 130 ± 20 nM
IC50 (MDCK): 3260 ± 400 nM
IC50 (A7r5): 2890 ± 420 nM
IC50 (4T1; [8]): 300 ± 30 nM

OC(c1ccccc1)(c1ccccc1)c1[se][n+]2ccccc2c1Br [Compound 2, 3-bromo-2-(hydroxydiphenylmethyl)-[1,2]selenazolo[2,3-a]pyridin-8-ium]
IC50 at 48 h [1, 9]: 2780 ± 80 nM
IC50 (MCF-7; [10]): 390 ± 30 nM
IC50 at 48 h ([2]; H9C2 cells (cardiomyoblasts)): 4200 ± 300 nM
IC50 at 48 h ([3]; NIH 3T3 cells (fibroblasts)): 1600 ± 300 nM
IC50 at 48 h ([4]; MDCK cells): 6270 ± 290 nM
IC50 at 48 h [5, 11]: 1870 ± 260 nM
IC50 (4T1; [12]): 1100 ± 80 nM

Cc1cc[n+]2[se]c(C3(O)CCCCC3)c(Br)c2c1 [Compound 4, 3-bromo-2-(1-hydroxycyclohexyl)-5-methyl-[1,2]selenazolo[2,3-a]pyridin-8-ium]
IC50 at 48 h [1, 9]: 2050 ± 50 nM
IC50 (MCF-7; [10]): 1480 ± 40 nM
IC50 at 48 h ([2]; H9C2 cells (cardiomyoblasts)): 2900 ± 100 nM
IC50 at 48 h ([3]; NIH 3T3 cells (fibroblasts)): 790 ± 20 nM
IC50 at 48 h ([4]; MDCK cells): 2540 ± 570 nM
IC50 at 48 h [5, 11]: 1930 ± 160 nM
IC50 (4T1; [12]): 450 ± 20 nM

OC1(c2[se][n+]3ccccc3c2Br)CCCCCC1.[Br-] [Compound 5, 3-Bromo-2-(1-hydroxycycloheptyl)-[1,2]selenazolo[2,3-a]pyridinium bromide]
IC50 at 48 h [1, 9]: 2010 ± 80 nM
IC50 (MCF-7; [10]): 290 ± 10 nM
increase of cytotoxicity against MCF-7 cells (MCF-7; cycloheptyl (5) versus cyclohexyl (4)): approximately 3 times
IC50 at 48 h ([2]; H9C2 cells (cardiomyoblasts)): 9300 ± 200 nM
IC50 at 48 h ([3]; NIH 3T3 cells (fibroblasts)): 980 ± 30 nM
IC50 at 48 h ([4]; MDCK cells): 1510 ± 370 nM
IC50 at 48 h [5, 11]: 1920 ± 440 nM
IC50 (4T1; [12]): 410 ± 50 nM

Cn1cc[n+]2[se]c(C3(O)CCCCC3)c(Br)c12 [Compound 7, 3-bromo-N-methyl-2-(1-hydroxycyclohexyl)[1,2]selenazolo[2,3-b]imidazolium bromide]
increase in H2O2/O ratio (permeabilized 4T1 cells): immediate significant increases
increase in H2O2 production (permeabilized 4T1 cells): immediate significant increases
IC50 at 48 h [1]: 2190 ± 90 nM
IC50 (MCF-7; Homo sapiens, MCF7, 48 h): 1480 ± 20 nM
decrease in NMN levels (MCF-7 cells [6]): not
IC50 at 48 h [2]: 670 ± 20 nM
IC50 at 48 h [3]: 2200 ± 300 nM
IC50 at 48 h [4]: 4280 ± 340 nM
NAD+/NADH ratio higher than in untreated cells (MCF-7 cells [7]): 1.65 times
decrease in NAD+ level (MCF-7 cells [7]; vs control): without affecting
decrease in NADH level (MCF-7 cells [7]; vs control): induced a decrease
IC50 at 48 h [5]: 1660 ± 250 nM
IC50 (4T1; Mus musculus, 4T1, 48 h): 940 ± 60 nM

COc1cccc2c1C(=O)c1c(O)c3c(c(O)c1C2=O)C[C@@](O)(C(=O)CO)C[C@@H]3O[C@H]1C[C@H](N)[C@H](O)[C@H](C)O1 [Doxorubicin, reference compound]
IC50 (MCF-7; [10]): 1000 ± 300 nM
IC50 at 48 h ([2]; H9C2 cells (cardiomyoblasts)): 11000 ± 1000 nM
IC50 values in tumor cells versus cardiomyocytes, fold lower (H9C2; tumor cells versus cardiomyocytes): 10–100 fold
IC50 at 48 h ([3]; NIH 3T3 cells (fibroblasts)): 750 ± 90 nM
IC50 at 48 h ([4]; MDCK cells): 57000 ± 6100 nM
IC50 at 48 h [5, 11]: 1820 ± 350 nM
IC50 (4T1; [12]): 160 ± 60 nM

O=[Se](O)O [Na2SeO3, Sodium selenite, reference compound]
IC50 (HEKa): 13300 ± 1100 nM
IC50 (MCF-7; [8]): 17100 ± 2400 nM
IC50 (H9C2): 1500 ± 300 nM
IC50 (NIH 3T3): 22300 ± 3600 nM
IC50 (MDCK): 6300 ± 400 nM
IC50 (A7r5): 39400 ± 8200 nM
IC50 (4T1; [8]): 4900 ± 600 nM
